# Laboratory results: patent US10927123B2, “Modulators of the beta-3 adrenergic receptor useful for the treatment or prevention of disorders related thereto” (Arena Pharmaceuticals, Inc., priority 2016, dated 2021)
# Molecular target: Beta-3 Adrenergic Receptor (Homo sapiens (Human), UniProt P13945)
# Assay: HTRF cAMP antagonist assay (IC50 determination)
# Assay type: cell-based
# Conditions: CHO-K1 cells stably expressing recombinant receptor; antagonism of isoproterenol at EC90; cAMP readout
# In short: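 In this functional readout, recombinant CHO-K1 cells received compound, then isoproterenol at its EC90. After 1 h at room temperature, cAMP levels were determined by HTRF using an on-plate standard curve, and IC50 values were fitted.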
# Beta-3 Adrenergic Receptor, sequence (P13945 whole entry, species assumed): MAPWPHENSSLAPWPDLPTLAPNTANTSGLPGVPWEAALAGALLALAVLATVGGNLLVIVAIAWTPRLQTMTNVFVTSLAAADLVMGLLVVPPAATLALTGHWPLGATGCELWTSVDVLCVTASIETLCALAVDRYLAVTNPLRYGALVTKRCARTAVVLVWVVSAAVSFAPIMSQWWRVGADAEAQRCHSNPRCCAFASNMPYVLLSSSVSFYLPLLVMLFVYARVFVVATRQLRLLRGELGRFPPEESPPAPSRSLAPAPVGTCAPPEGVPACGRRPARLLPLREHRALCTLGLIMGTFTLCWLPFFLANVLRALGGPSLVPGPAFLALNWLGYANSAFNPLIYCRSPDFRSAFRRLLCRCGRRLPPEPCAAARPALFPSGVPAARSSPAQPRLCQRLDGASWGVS
row,Compound,IC50 [nM]
1,"O=S(=O)(CCO)c1cccc(OC[C@@H](O)CN[C@H]2COC3(CCN(S(=O)(=O)c4ccc(-c5ccccn5)cc4)CC3)C2)c1 [Compound 102, (S)-1-(3-(2-hydroxyethylsulfonyl)phenoxy)-3-((R)-8-(4-(pyridin-2-yl)phenylsulfonyl)-1-oxa-8-azaspiro[4.5]decan-3-ylamino)propan-2-ol]",114
2,"NCc1ccc(-c2ccc(S(=O)(=O)N3CCC4(CC3)C[C@@H](NC[C@H](O)COc3cccc(S(=O)(=O)CCO)c3)CO4)cc2)cc1 [Compound 103, (S)-1-((R)-8-(4′-(aminomethyl)biphenyl-4-ylsulfonyl)-1-oxa-8-azaspiro[4.5]decan-3-ylamino)-3-(3-(2-hydroxyethylsulfonyl)phenoxy)propan-2-ol]",1200
3,"CN1CCOc2ncc(S(=O)(=O)N3CCC4(CC3)C[C@@H](NC[C@H](O)COc3cccc(CS(C)(=O)=O)c3)CO4)cc21 [Compound 104, (S)-1-((R)-8-(1-methyl-2,3-dihydro-1H-pyrido[2,3-b][1,4]oxazin-7-ylsulfonyl)-1-oxa-8-azaspiro[4.5]decan-3-ylamino)-3-(3-(methylsulfonylmethyl)phenoxy)propan-2-ol]",36.5
4,"O=S(=O)(CCO)c1cccc(OC[C@@H](O)CN[C@H]2COC3(CCN(S(=O)(=O)c4cccc5cnccc45)CC3)C2)c1 [Compound 105, (S)-1-(3-(2-hydroxyethylsulfonyl)phenoxy)-3-((R)-8-(isoquinolin-5-ylsulfonyl)-1-oxa-8-azaspiro[4.5]decan-3-ylamino)propan-2-ol]",277
5,"O=S(=O)(c1ccc2ncccc2c1)N1CCC2(CC1)C[C@@H](NC[C@H](O)COc1cccc(S(=O)(=O)C3(CO)CCC3)c1)CO2 [Compound 110, (S)-1-(3-(1-(hydroxymethyl)cyclobutylsulfonyl)phenoxy)-3-((R)-8-(quinolin-6-ylsulfonyl)-1-oxa-8-azaspiro[4.5]decan-3-ylamino)propan-2-ol]",68.7
6,"O=S(=O)(c1cccc(OC[C@@H](O)CN[C@H]2COC3(CCN(S(=O)(=O)c4ccc5ncccc5c4)CC3)C2)c1)C1CCC1 [Compound 114, (S)-1-(3-(cyclobutylsulfonyl)phenoxy)-3-((R)-8-(quinolin-6-ylsulfonyl)-1-oxa-8-azaspiro[4.5]decan-3-ylamino)propan-2-ol]",52
7,"Cc1cccc(-c2cccc(S(=O)(=O)N3CCC4(CC3)C[C@H](NC[C@H](O)COc3cccc(S(=O)(=O)CCO)c3)CO4)c2)n1 [Compound 120, (5)-1-(3-(2-hydroxyethylsulfonyl)phenoxy)-3-((S)-8-(3-(6-methylpyridin-2-yl)phenylsulfonyl)-1-oxa-8-azaspiro[4.5]decan-3-ylamino)propan-2-ol]",177
8,"O=S(=O)(CCO)c1cccc(OC[C@@H](O)CN[C@H]2COC3(CCN(S(=O)(=O)c4cccc(-c5cccc(C(F)(F)F)n5)c4)CC3)C2)c1 [Compound 125, (S)-1-(3-(2-hydroxyethylsulfonyl)phenoxy)-3-((R)-8-(3-(6-(trifluoromethyl)pyridin-2-yl)phenylsulfonyl)-1-oxa-8-azaspiro[4.5]decan-3-ylamino)propan-2-ol]",48.8
9,"O=S(=O)(CCO)c1cccc(OC[C@@H](O)CN[C@H]2COC3(CCN(S(=O)(=O)c4cccc(-c5ncccc5F)c4)CC3)C2)c1 [Compound 126, (S)-1-((R)-8-(3-(3-fluoropyridin-2-yl)phenylsulfonyl)-1-oxa-8-azaspiro[4.5]decan-3-ylamino)-3-(3-(2-hydroxyethylsulfonyl)phenoxy)propan-2-ol]",126
10,"Cc1ccc(-c2cccc(S(=O)(=O)N3CCC4(CC3)C[C@@H](NC[C@H](O)COc3cccc(S(=O)(=O)CCO)c3)CO4)c2)nc1 [Compound 127, (S)-1-(3-(2-hydroxyethylsulfonyl)phenoxy)-3-((R)-8-(3-(5-methylpyridin-2-yl)phenylsulfonyl)-1-oxa-8-azaspiro[4.5]decan-3-ylamino)propan-2-ol]",157
11,"Cc1cccc(-c2cccc(S(=O)(=O)N3CCC4(CC3)C[C@@H](NC[C@H](O)COc3cccc(S(=O)(=O)CCO)c3)CO4)c2)n1 [Compound 128, (S)-1-(3-(2-hydroxyethylsulfonyl)phenoxy)-3-((R)-8-(3-(6-methylpyridin-2-yl)phenylsulfonyl)-1-oxa-8-azaspiro[4.5]decan-3-ylamino)propan-2-ol]",108

# Results, then the compound that gave them:
row,IC50 [nM],Compound
1,36.2,"CC(C)(CO)S(=O)(=O)c1cccc(OC[C@@H](O)CN[C@H]2COC3(CCN(S(=O)(=O)c4cnc5ccccc5c4)CC3)C2)c1 [Compound 106, 2-(3-((S)-2-hydroxy-3-((R)-8-(quinolin-3-ylsulfonyl)-1-oxa-8-azaspiro[4.5]decan-3-ylamino)propoxy)phenylsulfonyl)-2-methylpropan-1-ol]"
2,25.7,"O=S(=O)(c1cnc2ccccc2c1)N1CCC2(CC1)C[C@@H](NC[C@H](O)COc1cccc(S(=O)(=O)C3(CO)CCC3)c1)CO2 [Compound 107, (S)-1-(3-(1-(hydroxymethyl)cyclobutylsulfonyl)phenoxy)-3-((R)-8-(quinolin-3-ylsulfonyl)-1-oxa-8-azaspiro[4.5]decan-3-ylamino)propan-2-ol]"
3,325,"CC(C)(C(N)=O)S(=O)(=O)c1cccc(OC[C@@H](O)CN[C@H]2COC3(CCN(S(=O)(=O)c4cnc5ccccc5c4)CC3)C2)c1 [Compound 108, 2-(3-((S)-2-hydroxy-3-((R)-8-(quinolin-3-ylsulfonyl)-1-oxa-8-azaspiro[4.5]decan-3-ylamino)propoxy)phenylsulfonyl)-2-methylpropanamide]"
4,145,"CC(C)(CO)S(=O)(=O)c1cccc(OC[C@@H](O)CN[C@H]2COC3(CCN(S(=O)(=O)c4ccc5ncccc5c4)CC3)C2)c1 [Compound 109, 2-(3-((S)-2-hydroxy-3-((R)-8-(quinolin-6-ylsulfonyl)-1-oxa-8-azaspiro[4.5]decan-3-ylamino)propoxy)phenylsulfonyl)-2-methylpropan-1-ol]"
5,31.1,"CS(=O)(=O)c1cccc(OC[C@@H](O)CN[C@H]2COC3(CCN(S(=O)(=O)c4ccc5ncccc5c4)CC3)C2)c1 [Compound 111, (S)-1-(3-(methylsulfonyl)phenoxy)-3-((R)-8-(quinolin-6-ylsulfonyl)-1-oxa-8-azaspiro[4.5]decan-3-ylamino)propan-2-ol]"
6,39.5,"CCS(=O)(=O)c1cccc(OC[C@@H](O)CN[C@H]2COC3(CCN(S(=O)(=O)c4ccc5ncccc5c4)CC3)C2)c1 [Compound 112, (S)-1-(3-(ethylsulfonyl)phenoxy)-3-((R)-8-(quinolin-6-ylsulfonyl)-1-oxa-8-azaspiro[4.5]decan-3-ylamino)propan-2-ol]"
7,26.8,"CC(C)S(=O)(=O)c1cccc(OC[C@@H](O)CN[C@H]2COC3(CCN(S(=O)(=O)c4ccc5ncccc5c4)CC3)C2)c1 [Compound 113, (S)-1-(3-(isopropylsulfonyl)phenoxy)-3-((R)-8-(quinolin-6-ylsulfonyl)-1-oxa-8-azaspiro[4.5]decan-3-ylamino)propan-2-ol]"
8,120,"CCCS(=O)(=O)c1cccc(OC[C@@H](O)CN[C@H]2COC3(CCN(S(=O)(=O)c4ccc5ncccc5c4)CC3)C2)c1 [Compound 115, (S)-1-(3-(propylsulfonyl)phenoxy)-3-((R)-8-(quinolin-6-ylsulfonyl)-1-oxa-8-azaspiro[4.5]decan-3-ylamino)propan-2-ol]"
9,320,"CC(C)CS(=O)(=O)c1cccc(OC[C@@H](O)CN[C@H]2COC3(CCN(S(=O)(=O)c4ccc5ncccc5c4)CC3)C2)c1 [Compound 116, (S)-1-(3-(isobutylsulfonyl)phenoxy)-3-((R)-8-(quinolin-6-ylsulfonyl)-1-oxa-8-azaspiro[4.5]decan-3-ylamino)propan-2-ol]"
10,172,"O=S(=O)(CC1CC1)c1cccc(OC[C@@H](O)CN[C@H]2COC3(CCN(S(=O)(=O)c4ccc5ncccc5c4)CC3)C2)c1 [Compound 117, (S)-1-(3-(cyclopropylmethylsulfonyl)phenoxy)-3-((R)-8-(quinolin-6-ylsulfonyl)-1-oxa-8-azaspiro[4.5]decan-3-ylamino)propan-2-ol]"
11,10.4,"CS(=O)(=O)c1cccc(OC[C@@H](O)CN[C@H]2COC3(CCN(S(=O)(=O)c4cnc5ccccc5c4)CC3)C2)c1 [Compound 118, (S)-1-(3-(methylsulfonyl)phenoxy)-3-((R)-8-(quinolin-3-ylsulfonyl)-1-oxa-8-azaspiro[4.5]decan-3-ylamino)propan-2-ol]"
12,11.6,"CC(C)S(=O)(=O)c1cccc(OC[C@@H](O)CN[C@H]2COC3(CCN(S(=O)(=O)c4cnc5ccccc5c4)CC3)C2)c1 [Compound 119, (S)-1-(3-(isopropylsulfonyl)phenoxy)-3-((R)-8-(quinolin-3-ylsulfonyl)-1-oxa-8-azaspiro[4.5]decan-3-ylamino)propan-2-ol]"
13,562,"O=S(=O)(CCCO)c1cccc(OC[C@@H](O)CN[C@H]2COC3(CCN(S(=O)(=O)c4ccc5ncccc5c4)CC3)C2)c1 [Compound 121, 3-(3-((S)-2-hydroxy-3-((R)-8-(quinolin-6-ylsulfonyl)-1-oxa-8-azaspiro[4.5]decan-3-ylamino)propoxy)phenylsulfonyl)propan-1-ol]"
14,7.81,"CCS(=O)(=O)c1cccc(OC[C@@H](O)CN[C@H]2COC3(CCN(S(=O)(=O)c4cnc5ccccc5c4)CC3)C2)c1 [Compound 122, (S)-1-(3-(ethylsulfonyl)phenoxy)-3-((R)-8-(quinolin-3-ylsulfonyl)-1-oxa-8-azaspiro[4.5]decan-3-ylamino)propan-2-ol]"
15,78.2,"CC(C)CS(=O)(=O)c1cccc(OC[C@@H](O)CN[C@H]2COC3(CCN(S(=O)(=O)c4cnc5ccccc5c4)CC3)C2)c1 [Compound 124, (S)-1-(3-(isobutylsulfonyl)phenoxy)-3-((R)-8-(quinolin-3-ylsulfonyl)-1-oxa-8-azaspiro[4.5]decan-3-ylamino)propan-2-ol]"
